Experimental data as given in patent publication US8426447B2, “Spiro-tricyclic ring compounds as beta-secretase modulators and methods of use” (Amgen Inc., priority 2008, dated 2013).

Experiments:
BACE1 [1] = target: T1, BACE1 (Homo sapiens, UniProt P56817); assay: In Vitro Enzymatic BACE FRET (Fluorescence Resonance Energy Transfer) Assay; assay type: biochemical; details: read-out: BACE1 FRET assay
Procedure, shortened: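 First, compound and enzyme sit in 0.05 M acetate (pH 4.2, 10% DMSO final, 100 uM nonionic genapol). Next, 50 nM quenched FRET peptide starts the reaction for one hour. Last, Tris neutralises the mixture before fluorescence is measured.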

BACE1 [2] = target: T1, BACE1; assay: In Vitro BACE Cell-based Assay (HEK cell assay): Aβ40 in conditioned medium of cells stably expressing Amyloid Precursor Protein, sandwich ELISA; details: read-out: HEK cell assay
Description: In Vitro BACE Cell-based Assay
The cell-based assay measures inhibition or reduction of Aβ40 in conditioned medium of test compound treated cells expressing amyloid precursor protein.
Cells stably expressing Amyloid Precursor Protein (APP) were plated at a density of 40K cells/well in 96 well plates (Costar). The cells were cultivated for 24 hours at 37° C. and 5% CO2 in DMEM supplemented with 10% FBS. The test compounds were then added to cells in 10-point dose response concentrations with the starting concentration being either 100 μM or 10 μM. The compounds were diluted from stock solutions in DMSO and the final DMSO concentration of the test compounds on cells was 0.1%. After 24 h of incubation with the test compounds the supernatant conditioned media was collected and the Aβ 40 levels were determined using a sandwich ELISA. The IC50 of the compound was calculated from the percent of control or percent inhibition of Aβ 40 as a function of the concentration of the test compound.
The sandwich ELISA to detect Aβ 40 was performed in 96 well microtiter plates, which were pre-treated with goat anti-rabbit IgG (Pierce). The capture and detecting antibody pair that were used to detect Aβ 40 from cell supernatants were affinity purified pAb40 (Biosource) and biotinylated 6E10 (Signet Labs Inc.), respectively. The optimal concentration for the pAb40 antibody was 3 μg/ml in Superblock/TBS (Pierce) that was supplemented with 0.05% Tween 20 (Sigma).
Cellular supernatants were incubated with the capture antibody for 3 h at 4° C., followed by 3 wash steps in TBS-tween (0.05%). The detecting antibody incubation was for 2 h at 4° C., again followed by the wash steps as described previously. The final readout of the ELISA is Time-Resolved Fluorescence (counts per minute) using Delfia reagents Streptavidin-Europium and Enhancement solutions (Perkin Elmer) and the Victor 2 multilabel counter (Perkin Elmer).

[3] = Table II, Aβ40, 24 h incubation
[4] = in vitro BACE FRET enzyme assay, IC50 class symbols
[5] = HEK cell-based assay, Aβ40 in conditioned medium, IC50 class symbols

T1 sequence (P56817 46-501, species assumed): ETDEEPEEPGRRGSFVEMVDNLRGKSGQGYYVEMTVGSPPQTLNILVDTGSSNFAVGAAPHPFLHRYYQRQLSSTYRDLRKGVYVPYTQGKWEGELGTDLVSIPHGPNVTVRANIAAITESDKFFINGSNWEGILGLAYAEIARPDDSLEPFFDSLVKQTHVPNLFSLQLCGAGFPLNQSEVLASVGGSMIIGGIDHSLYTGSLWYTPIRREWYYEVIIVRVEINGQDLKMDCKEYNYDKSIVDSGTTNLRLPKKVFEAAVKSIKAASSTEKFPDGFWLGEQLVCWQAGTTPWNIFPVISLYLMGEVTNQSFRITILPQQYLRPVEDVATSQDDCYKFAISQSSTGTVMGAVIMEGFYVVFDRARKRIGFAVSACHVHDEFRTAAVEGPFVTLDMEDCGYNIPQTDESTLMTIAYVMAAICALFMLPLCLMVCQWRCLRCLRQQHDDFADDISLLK

With `NC1=N[C@]2(CO1)c1cc(-c3cncnc3)ccc1Oc1cccnc12` [compound 527] the IC50 (BACE1 [1]) was 0.1 to 1 µM and the IC50 (BACE1 [2]; HEK cells) was 0.1 to 1 µM.
For `CC(C)(C)COc1ccc2c(c1)[C@]1(COC(N)=N1)c1cc(-c3ccccc3)ccc1O2` [Example 85, (4S)-2′-(2,2-dimethylpropoxy)-7′-phenylspiro[1,3-oxazole-4,9′-xanthen]-2-amine], the IC50 (BACE1 [1]; Table II) was less than 0.1 µM and the IC50 (BACE1 [2]; [3]) was 1 to 5 µM.
`C[C@H]1OC(N)=N[C@@]12c1cc(OCC(C)(C)C)ccc1Oc1ccc(-c3cncnc3)cc12` [126d] was tested, and the IC50 (BACE1 [1]; Table III, IC50's in uM ranges) was less than 0.1 µM and the IC50 (BACE1 [2]; Table III, IC50's in uM ranges) was less than 0.1 µM.
`NC1=NC2(CO1)c1cc(-c3cccnc3)ccc1Oc1c2cc(-c2cccnc2)nc1F` (stereo not drawn) [compound 301, 1-fluoro-3,7-di(pyridin-3-yl)-5′H-spiro[chromeno[2,3-c]pyridine-5,4′-oxazol]-2′-amine] was tested, and the IC50 (BACE1 [1]; [4]) was less than 0.1 µM and the IC50 (BACE1 [2]; [5]) was less than 0.1 µM.
In the case of `NC1=N[C@]2(CO1)c1ccccc1Oc1ccc(-c3cccnc3)cc12` [compound 684], the IC50 (BACE1 [1]) is reported as 0.1 to 1 µM and the IC50 (BACE1 [2]) is reported as 0.1 to 1 µM.
`CC(C)(C)CCc1ccc2c(c1)[C@]1(COC(N)=N1)c1cc(-c3ccc(F)nc3)ccc1O2` [153b] was tested, and the IC50 (BACE1 [1]; Table III, IC50's in uM ranges) was less than 0.1 µM and the IC50 (BACE1 [2]; Table III, IC50's in uM ranges) was 0.1 to 1 µM.
With `COc1ccc2c(c1)[C@]1(COC(N)=N1)c1cc(NC(=O)C3CCCO3)ccc1O2` (stereo partly drawn) [compound 614] the IC50 (BACE1 [1]; Table IV, class symbols) was 0.1 to 1 µM and the IC50 (BACE1 [2]; Table IV, class symbols) was 0.1 to 1 µM.
With `CC1(C)CN(c2ccc3c(c2)[C@]2(COC(N)=N2)c2cc(-c4cncnc4)ccc2O3)C1` [compound 561] the IC50 (BACE1 [1]; Table IV, class symbols) was less than 0.1 µM and the IC50 (BACE1 [2]; Table IV, class symbols) was less than 0.1 µM.
In the case of `COC(C)(C)C#Cc1cnc2c(c1)[C@]1(COC(N)=N1)c1cc(-c3cncnc3)ccc1O2` [compound 822], the IC50 (BACE1 [1]; Table IV, class symbols) is reported as less than 0.1 µM and the IC50 (BACE1 [2]; Table IV, class symbols) is reported as less than 0.1 µM.
Compound `COc1ncccc1-c1ccc2c(c1)[C@@]1(COC(N)=N1)c1cc(OCC(C)(C)C)ccc1O2` [Example 77, (4S)-2′-(2,2-dimethylpropoxy)-7′-(2-methoxy-3-pyridinyl)spiro[1,3-oxazole-4,9′-xanthen]-2-amine] has an IC50 (BACE1 [1]; Table II) of less than 0.1 µM and an IC50 (BACE1 [2]; [3]) of 1 to 5 µM.
Compound `Cc1c(OCC(C)(C)O)ccc2c1[C@]1(COC(N)=N1)c1cc(-c3cccnc3)ccc1O2` [compound 907] has an IC50 (BACE1 [1]; Table IV, class symbols) of less than 0.1 µM and an IC50 (BACE1 [2]; Table IV, class symbols) of less than 0.1 µM.
Compound `NC1=N[C@@]2(CO1)c1cc(-c3cccnc3)ccc1Oc1cnc(N3CCN(CC(=O)O)CC3)cc12` [compound 396] has an IC50 (BACE1 [1]; [4]) of less than 0.1 µM and an IC50 (BACE1 [2]; [5]) of 0.1 to 1 µM.
For `COCC#Cc1ccc2c(c1)[C@]1(COC(N)=N1)c1cc(-c3cncnc3)ccc1O2` [156a], the IC50 (BACE1 [1]; Table III, IC50's in uM ranges) was less than 0.1 µM and the IC50 (BACE1 [2]; Table III, IC50's in uM ranges) was less than 0.1 µM.
Compound `NC1=N[C@]2(CO1)c1cc(CCC3(O)CCC3)ccc1Oc1ccc(-c3cccnc3)cc12` [compound 859] has an IC50 (BACE1 [1]; Table IV, class symbols) of less than 0.1 µM and an IC50 (BACE1 [2]; Table IV, class symbols) of less than 0.1 µM.
`NC1=N[C@]2(CO1)c1ccncc1Oc1ccc(-c3cccnc3)cc12` [compound 675] showed an IC50 (BACE1 [1]) of 0.1 to 1 µM and an IC50 (BACE1 [2]) of 1 to 5 µM.
Compound `NC1=N[C@@]2(CO1)c1cc(-c3cncnc3)ccc1Oc1cnc(Cl)cc12` [compound 500] has an IC50 (BACE1 [1]) of 0.1 to 1 µM and an IC50 (BACE1 [2]; HEK cells) of 1 to 5 µM.
`CC(C)(O)COc1ccc2c(c1)[C@]1(COC(N)=N1)c1cc(-c3ccccc3)ccc1O2` [compound 221] showed an IC50 (BACE1 [1]; Table III, IC50's in uM ranges) of less than 0.1 µM and an IC50 (BACE1 [2]; Table III, IC50's in uM ranges) of 0.1 to 1 µM.
`CCOC(C)(C)COc1ccc2c(c1)[C@]1(COC(N)=N1)c1cc(-c3cccnc3)ccc1O2` [compound 172] was tested, and the IC50 (BACE1 [1]; Table III, IC50's in uM ranges) was less than 0.1 µM and the IC50 (BACE1 [2]; Table III, IC50's in uM ranges) was less than 0.1 µM.
For `CC(C)(C)COc1ccc2c(c1)[C@@]1(COC(N)=N1)c1cc(-c3ccnc(F)c3)cnc1O2` [compound 752], the IC50 (BACE1 [1]) was less than 0.1 µM and the IC50 (BACE1 [2]) was less than 0.1 µM.
For `NC1=NC2(CO1)c1cc(C3=CCOCC3)ccc1Oc1ccc(C3=CCOCC3)cc12` [compound 757], the IC50 (BACE1 [1]) was 0.1 to 1 µM and the IC50 (BACE1 [2]) was 0.1 to 1 µM.
`CC1(COc2ccc3c(c2)[C@]2(COC(N)=N2)c2cc(-c4cncnc4)cnc2O3)COC1` [compound 166] was tested, and the IC50 (BACE1 [1]; Table III, IC50's in uM ranges) was less than 0.1 µM and the IC50 (BACE1 [2]; Table III, IC50's in uM ranges) was 0.1 to 1 µM.
`COc1cccc(-c2ccc3c(c2)[C@]2(COC(N)=N2)c2cc(-c4cncnc4)ccc2O3)c1` [compound 893] was tested, and the IC50 (BACE1 [1]; Table IV, class symbols) was less than 0.1 µM and the IC50 (BACE1 [2]; Table IV, class symbols) was 0.1 to 1 µM.
For `NC1=N[C@@]2(CO1)c1cc(-c3cccc(F)c3)ccc1Oc1cnc(-c3cccc(F)c3)cc12` [compound 366], the IC50 (BACE1 [1]; [4]) was less than 0.1 µM and the IC50 (BACE1 [2]; [5]) was 0.1 to 1 µM.
`COc1ccc2c(c1)[C@@]1(COC(N)=N1)c1cc(C3=CCOCC3)cc(F)c1O2` [compound 364] gave an IC50 (BACE1 [1]; [4]) of 0.1 to 1 µM and an IC50 (BACE1 [2]; [5]) of 1 to 5 µM.
